One series concerns M30. The experiment in a line: phase 2 study, M30 ELISA assay in patient serum. In kind it is in vivo, human. In general terms: ELISA stands for enzyme-linked immunosorbent assay.
Series [1] can be described thus: phase I dose-escalation study, safety. Type of series: in vivo, human. The text has this: This example illustrates a phase I dose-escalation study to evaluate the safety, pharmacokinetics, and preliminary efficacy of navitoclax in subjects with relapsed or refractory SCLC and other solid tumors. This phase I study of navitoclax, a novel inhibitor of Bcl-2 family proteins, was designed to evaluate safety, pharmacokinetics, and preliminary efficacy in subjects with small cell lung cancer (SCLC) or other solid tumors.
Subjects enrolled to intermittent dosing cohorts received navitoclax on Days 1-14 followed by 7 days off. Subjects on continuous dosing cohorts received a one week lead-in dose of 150 mg followed by continuous daily administration of navitoclax. Blood samples were collected for pharmacokinetic analyses, biomarker analyses, and platelet monitoring.
Subjects were evaluated with history, physical exam, vital signs, complete blood count, chemistries, urinalysis and ECOG PS weekly through C2 and on D1 of each subsequent cycle. ECG and 2D-ECHO were obtained on C1D-3, C1D14, C3D1, C3D14, and end of study. Platelet counts were obtained on D-3 through 14 of C1, and weekly through each subsequent cycle. Lymphocyte enumeration was performed at screening, C1D14, at the end of C4, and at the end of every 3rd cycle thereafter. Radiographic tumor assessments were performed at baseline, after the 2nd and 4th cycles and after every 3 cycles thereafter. […]

In series [2] the test system is circulating tumor cells (CTC). The series is described as follows: phase 2 study, circulating tumor cell number (CellSearch). Type of series: in vivo, human.
Experimental: Blood specimens for analyzing circulating tumor cells (CTC) were collected at screening, on day 14 of cycles 1 and 2, and at final study visit (for US patients only). […] Samples enriched for CTC are removed from the Veridex cartridge after the imaging and enumeration, washed 1× in PBS, pelleted then resuspended in 100 μL PBS and dropped onto a positively charged slide (Biogenex, San Ramon, Calif.) and dried. The slides are then rinsed in H2O prior to imaging using the Carl Zeiss (Germany) or Bioview imaging systems (Tel Aviv, Israel), the CTC are identified and the locations recorded. […] The slides are then returned to the Zeiss or Bioview imaging systems and the previously identified CTC are assessed for DNA copy number.
(§1) Correlations between median BCL2 copy number and pro-GRP were performed by the Pearson correlation; M30 and CTC change from baseline comparisons among Pro-GRP groups were performed by one-way ANOVA using the JMP 8.0 statistical software.
To further evaluate this association, we assessed plasma Pro-GRP, and BCL2 copy number by FISH in CTC from patients on this study (n=10).
A further series relates to pro-GRP. The series is described as follows: phase I study, plasma pro-GRP (ARCHITECT ELISA). The conditions noted are these: with increasing dose. In kind it is in vivo, human. How it is done:
Blood samples for circulating tumor cells (CTCs) were collected at screening, C1D14, C2D14, and at the end of study treatment. Samples for the plasma marker Pro-GRP were collected at screening, C1D14, C2D14, and at the end of study. Samples for serum marker M30 were collected at screening, pre-dose, 6 and 24 hours post-dose on C1D-3 (for 14/21 day dosing) or lead-in day 2 for 21/21 day dosing). Samples were also collected on C1D14; pre-dose and 6 hours post-dose on C2D1; C2D14; end of cycle 4; and every 3rd cycle thereafter and at the final visit for all subjects.
The CTC were analyzed via the CellSearch system (Veridex, Raritan, N.J.). […] Pro-GRP was measured using ARCHITECT ELISA kits (Abbott Diagnostics, Abbott Park, Ill.). Serum samples were analyzed for M30 and M65 (Peviva) using previously described assays validated to good clinical laboratory practice (Cummings J, Ward T H, LaCasse E, et al: Validation of pharmacodynamic assays to evaluate the clinical efficacy of an antisense compound (AEG 35156) targeted to the X-linked inhibitor of apoptosis protein XIAP. Br J Cancer 92:532-8, 2005; and Cummings J, Ranson M, Lacasse E, et al: Method validation and preliminary qualification of pharmacodynamic biomarkers employed to evaluate the clinical efficacy of an antisense compound (AEG35156) targeted to the X-linked inhibitor of apoptosis protein XIAP. […]

The nature of series [3]: phase I study, pharmacokinetics. Type of series: in vivo. The conditions noted are these: human, plasma; phase 1, patients, oral.
Series [4] is described as follows: phase 2 study, safety / study discontinuation. Type of series: in vivo, human. The conditions noted are these: phase 2, 39 patients. How it is done: Safety assessments included history and physical examinations, vital signs, ECOG performance status, AEs, blood chemistry and complete blood counts with differential. Safety assessments were performed at screening, weekly during cycle 1, and at the start of subsequent cycles. Adverse event severity was graded according to the National Cancer Institute Common Terminology Criteria for Adverse Events (NCI CTCAE), version 3.0 (Common Terminology Criteria for Adverse Events. Version 3.0. Available at NCI website for the cancer therapy evaluation program (CTEP). Relationships of adverse events to navitoclax (definitely, probably, possibly, unlikely, or unrelated) were assessed by the Principal Investigator at each site.
A total of 39 patients participated in the phase 2 study. The majority of patients were of performance status 1. The median number of prior therapeutic regimens was 2 (range 1-6). All patients were started at the planned dose and schedule, including dose escalation to 325 mg in week 2. The primary reasons for study discontinuation included disease progression (N=26, 67%) and AEs (N=11, 28%). The median number of treatment cycles was 2 (range, 1-11) and the median treatment duration was 1.3 months (range, 0.2-7.3).

“Also recorded” adds a separate entry of the source.

Experimental for M30: Serum and plasma samples collected at the same intervals were stored at −70° C. or colder until analyzed for quantitative assessment of tumor markers. CYFRA 21-1 and Pro-GRP were measured using the automated [sequence] ELISA kits (Abbott Diagnostics, Abbott Park, Ill.) and NSE was measured in plasma using automated electrochemoluminescent assays on Elecsys 2010 (Roche Diagnostics, Germany). Serum samples were analyzed for M30 and M65 (Peviva AB, Sweden) using previously described assays validated to good clinical laboratory practice (see, Cummings J., et al., Br J Cancer 92:532-8, 2005; and Cummings J., et al., Br J Cancer 95:42-8, 2006).
as §1
This assay measures the release of caspase-cleaved cytokeratin 18 following apoptotic cell death.

The half-life is the time needed for the level to fall by half in the phase considered. In the case of `CC1(C)CCC(c2ccc(Cl)cc2)=C(CN2CCN(c3ccc(C(=O)NS(=O)(=O)c4ccc(NC(CCN5CCOCC5)CSc5ccccc5)c(S(=O)(=O)C(F)(F)F)c4)cc3)CC2)C1` (stereo in doubt) [navitoclax, N-(4-(4-(2-(4-chlorophenyl)-5,5-dimethyl-1-cyclohex-1-en-1-yl)methyl)pip-erazin-1-yl)benzoyl)-4-(((1R)-3-(morpholin-4-yl)-1-((phenylsulfanyl)methyl)propyl)amino)-3-((trifluoromethyl)sulfonyl)benzenesulfonamide], the M30 concentrations in the series on M30 (better prognosis patients, high Pro-GRP group (above 600 pg/mL)) stood at 205%; in the series with M30 (better prognosis patients, low Pro-GRP group (below 600 pg/mL)), 116%; in the series on M30 (total population, high Pro-GRP group n=19), 212%; in the series on M30 (total population, low Pro-GRP n=13), 109%. Moreover, the “recommended phase 2 dose” value in series [1] (from exploration of doses and schedules in phase I) is 325 mg daily. Also, the toxicities / tolerability entry in series [1] (phase I, intermittent and continuous dosing cohorts) is “dose and schedule-dependent thrombocytopenia, diarrhea, nausea, and fatigue; also recorded: safe, well-tolerated, with dose-dependent thrombocytopenia as the major side effect; also recorded: rapid and dose-dependent thrombocytopenia”. The “median CTC number” value in series [2] (better prognosis patients, high pro-GRP group, baseline to day 14) is reported as 91 % of baseline; in series [2] (better prognosis patients, low pro-GRP group, baseline to day 14), 349 % of baseline; in series [2] (total population, high pro-GRP group n=12), 186 % of baseline; in series [2] (total population, low pro-GRP group n=8), 518 % of baseline. Further, the Pro-GRP levels overall result with pro-GRP is reported as “declined or stabilized with increasing navitoclax dose”. The same compound showed a half-life in series [3] of roughly 15 h. The “study discontinuation due to AEs” value in series [4] is reported as 28%.

For the origin of these results see patent US8748108B2, “Biomarkers for identifying patient classes” (AbbVie Inc., priority 2006, dated 2014).
